# System: idiopathic pulmonary fibrosis model rats
# Assay: Bleomycin-induced idiopathic pulmonary fibrosis model
# Assay type: in vivo, male SD rats
# Details: IPF rats; for degree of pulmonary fibrosis in the left lung (Ashcroft score): oral once a day 14 days
# Experimental: 48 male SD rats were randomly divided into 6 groups according to their body weights, with 8 rats in each group: a sham operation group (Sham), a model group, a nintedanib-50 mg/kg group (BIBF-50 mg/kg), a tadalafil-5 mg/kg group, a tadalafil-20 mg/kg group, and a sildenafil-20 mg/kg group. All the operations involved in this experiment were implemented under the guiding principle of KCI animal experiment operation SOP. After the animals were purchased, they were fed adaptively for 3-7 days before modeling. After weighing, the animals were anesthetized with isoflurane inhalation. After it was confirmed that the animals were anesthetized, the neck was sterilized, the skin of the neck was cut open, a main trachea was exposed by blunt dissection of muscle, a small incision was made between tracheal rings, a PE-20 tube was inserted into a left main bronchus, bleomycin (dosage: 3 mg/kg, volume: 1.0 ml/kg) was directly injected, and the trachea and skin were sutured. After the operation was completed, the animals were put in an electric blanket at 37° C. to keep them warm until they fully woke up, and the animals were returned into feeding cages for normal feeding after it was confirmed that they could eat and drink freely. • (i) sham operation group and model group: the mice were given normal saline by intragastric administration according to their body weights at a dosage of 1 ml·100 g^-1·d^-1; • (ii) nintedanib-50 mg/kg group (BIBF-50 mg/kg): BIBF was formulated into a 10 mg/ml solution with 0.5% sodium carboxymethyl cellulose, and administrated intragastrically at a dosage of 50 mg·kg^-1·d^-1; • (iii) tadalafil-5 mg/kg group: tadalafil was diluted into a 1 mg/ml solution with 0.5% sodium carboxymethylcellulose, and administrated intragastrically at a dosage of 5 mg·kg^-1·d^-1; • (iv) tadalafil-20 mg/kg group: tadalafil was diluted into a 4 mg/ml solution with 0.5% sodium carboxymethylcellulose, and administrated intragastrically at a dosage of 20 mg·kg^-1·d^-1; • (v) sildenafil-20 mg/kg group: sildenafil was diluted into a 4 mg/ml solution with 0.5% sodium carboxymethylcellulose, and administrated intragastrically at a dosage of 20 mg·kg^-1·d^-1, and • the rats in each group were administrated intragastrically once a day for 14 days in total on the day of modeling. • (1) according to an interspecific dosage conversion method currently adopted by FDA, USA, the conversion coefficient of rats and human was 0.162. Therefore, according to the dosage and time of intragastric administration of tadalafil in the mice in this example, it was inferred that the oral dosage of human was 0.81-3.24 mg·kg^-1·d^-1, and the administration time was 14 days; and according to the dosage and time of intragastric administration of sildenafil in the mice in this example, it was inferred that the oral dosage of human was 3.24 mg·kg^-1·d^-1, and the administration time was 14 days. • (2) according to dosage conversion among different routes of administration in pharmacological experimental methodology, a dosage ratio of intramuscular injection and intraperitoneal injection to oral administration was about 0.3-0.4, so it was inferred that the injection dosage of tadalafil in human was 0.243-1.296 ml·kg^-1·d^-1, and the administration time was 14 days (medicament concentration: 1 mg/ml); and the injection dosage of sildenafil in human was 0.972-1.296 ml·kg^-1·d^-1, and the administration time was 14 days (medicament concentration: 1 mg/ml). 2.4 Experimental Indexes and Determining Methods 2.4.1 Weight and Volume of Left Lung of IPF Rats After 14 days of continuous administration, all animals were euthanized by intraperitoneal injection of a pentobarbital sodium anesthetic (100 mg/kg) to the animals in each group according to a KCI standard operating procedure for animal euthanasia. All animals were perfused with low-temperature PBS systematically, and then perfused systematically with formalin for fixation. […]
# [1] = 14 days intragastric, BIBF 50 mg/kg, tadalafil 5 and 20 mg/kg, sildenafil 20 mg/kg
# [2] = BIBF 50 mg/kg, tadalafil 5 and 20 mg/kg, sildenafil 20 mg/kg, vs model group, p<0.05
Structure (SMILES),alveolar tissue structure in the pulmonary fibrosis lesion of the left lung (HE staining) [1],alveolar tissue structure in the pulmonary fibrosis lesion of the left lung (Masson Trichrom staining) [1],"pulmonary fibrosis lesion and lesion range in the left lung (H&E and Masson Trichrom staining) (14 days intragastric, BIBF 50 mg/kg, tadalafil 5 and 20 mg/kg, sildenafil 20 mg/kg, vs model group)","scores of injury degrees of bronchioles and pulmonary arterioles in the center and margin of the pulmonary fibrosis lesion (14 days intragastric, BIBF 50 mg/kg, tadalafil 5 and 20 mg/kg, sildenafil 20 mg/kg, vs model group, p<0.05)","percentage of the pulmonary fibrosis degree (Ashcroft score of 3 as a boundary) (14 days intragastric, vs model group, p<0.05)",degree of pulmonary fibrosis in the left lung (Ashcroft score) [2]
"COC(=O)c1ccc2c(c1)NC(=O)/C2=C(\Nc1ccc(N(C)C(=O)CN2CCN(C)CC2)cc1)c1ccccc1 [BIBF, nintedanib]",some alveolar structures in the fibrosis lesion were still damaged,some alveolar structures disappeared in the fibrosis lesion,no significant difference,significantly decreased,significantly decreased,significantly improved
CCCc1nn(C)c2c(=O)[nH]c(-c3cc(S(=O)(=O)N4CCN(C)CC4)ccc3OCC)nc12 [sildenafil],the alveolar structure in the fibrosis lesion was preserved,most of the alveolar structures in the fibrosis lesion were preserved,–,–,–,significantly inhibit
